For experiment [1], the system named is Escherichia coli W-677/JR 762. Briefly: MIC by agar dilution method, Escherichia coli W-677/JR 762. Particulars: W677/JR762, read-out: Minimum Inhibitory Concentration (MIC). For orientation: In agar dilution, organisms are placed on agar that contains the substance at set levels.
Description: (§1) MIC was determined by the following agar dilution method.
(§2) One loopful of a strain of bacteria to be tested on agar slant was inoculated into a medium for growth of inoculum (Trypto Soy Broth; Eiken Chemical Co.) and incubated at 37° C. overnight.
(§3) A sample solution of aminoglycoside derivative was subjected to serial two-fold dilutions with sterile water. This diluted sample solutions were distributed to the Modified Mueller Hinton Agar medium (Nissui-seiyaku Co.), mixed gently and allowed to solidify.
(§4) One loopful of the bacterial suspension prepared in (1) was placed on the surface of the medium prepared in (2) containing the aminoglycoside derivative in various concentrations at 10^6 CFU/ml inoculum size.
For experiment [2], the system named is Pseudomonas aeruginosa PP-6. Briefly: MIC by agar dilution method, Pseudomonas aeruginosa PP-6. The conditions noted are these: PP6, read-out: Minimum Inhibitory Concentration (MIC).
Description: as §1, §2, §3, §4
Experiment [3] has as its system Klebsiella pneumoniae K1-168. Briefly: MIC by agar dilution method, Klebsiella pneumoniae K1-168. Particulars: K1168, read-out: Minimum Inhibitory Concentration (MIC).
Description: as §1, §2, §3, §4

In brackets after ≈: the same amount, converted by molar mass.

As to `NC[C@H]1O[C@H](O[C@H]2[C@H](O)[C@@H](O[C@H]3O[C@H](CO)[C@@H](O)[C@H](N)[C@H]3O)[C@H](N)C[C@@H]2N)[C@H](N)C[C@@H]1O` [TOB, tobramycin, reference compound], the MIC in experiment [1] is 50 µg/mL (≈ 107 µM); in experiment [2] it was more than 100 µg/mL; in experiment [3] it was 100 µg/mL (≈ 214 µM).

With `NC[C@H]1O[C@H](O[C@H]2[C@H](O)[C@@H](O[C@H]3O[C@H](CO)[C@@H](O)[C@H](N)[C@H]3O)[C@H](NC3=NCC[C@@H]3O)C[C@@H]2N)[C@H](N)C[C@@H]1O` [[A], 1N-[(S)(-)-3-hydroxy-1-pyrrolin-2-yl]tobramycin], the results for the MIC in experiment [1], in experiment [2] and in experiment [3] were 12.5 µg/mL (≈ 22.7 µM), 3.1 µg/mL (≈ 5.63 µM) and 3.1 µg/mL (≈ 5.63 µM), respectively.

With `NC[C@H]1O[C@H](O[C@H]2[C@H](O)[C@@H](O[C@H]3O[C@H](CO)[C@@H](O)[C@H](N)[C@H]3O)[C@H](NC3=NCCC[C@@H]3O)C[C@@H]2N)[C@H](N)C[C@@H]1O` [[B], 1N-[(S)(-)-3-hydroxy-3,4,5,6-tetrahydropyridin-2-yl]tobramycin], the MIC in experiment [1] was 12.5 µg/mL (≈ 22.1 µM); in experiment [2], 6.2 µg/mL (≈ 11 µM); in experiment [3] it was 3.1 µg/mL (≈ 5.49 µM).
